Where two headings read alike, the source gives them in different places.

One test addresses c-Src (Homo sapiens (Human), UniProt P12931). As to the kind of experiment: c-Src enzyme inhibition (FRET, Z-LYTE). It counts as biochemical. How it is done: (§1) The enzyme inhibitory activities of compounds disclosed herein are determined by FRET using synthetic peptides labelled with both donor and acceptor fluorophores (Z-LYTE, Invitrogen Ltd., Paisley, UK).
(§2) The inhibitory activities of compounds of the invention against c-Src and Syk enzymes (Invitrogen), are evaluated in a similar fashion to that described hereinabove. The relevant enzyme (3000 ng/mL or 2000 ng/mL respectively, 2.5 μL) is incubated with the test compound (either 4 μg/mL, 0.4 μg/mL, 0.04 μg/mL, or 0.004 μg/mL, 2.5 μL each) for 2 hr at RT. The FRET peptides (8 μM. 2.5 μL), and appropriate ATP solutions (2.5 μL, 800 μM for c-Src, and 60 μM ATP for Syk) are then added to the enzymes/compound mixtures and incubated for 1 hr. Development reagent (protease, 5 μL) is added for 1 hr prior to detection in a fluorescence microplate reader (Varioskan® Flash, ThermoFisher Scientific).
(§3) In all cases, the site-specific protease cleaves non-phosphorylated peptide only and eliminates the FRET signal. Phosphorylation levels of each reaction are calculated using the ratio of coumarin emission (donor) over fluorescein emission (acceptor), for which high ratios indicate high phosphorylation and low ratios indicate low phosphorylation levels. The percentage inhibition of each reaction is calculated relative to non-inhibited control and the 50% inhibitory concentration (IC50 value) is then calculated from the concentration-response curve.

A further test addresses GSK3α (Homo sapiens (Human), UniProt P49840). As to the kind of experiment: GSK 3α enzyme inhibition (FRET, Z-LYTE; Method 2). It counts as biochemical. An outline of the steps: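 GSK3-α protein preincubated with compound for 105 min, then Z-LYTE FRET peptide and ATP added for 1 h before protease development for 1 h. Phosphorylation taken from coumarin/fluorescein emission ratio; percent inhibition against uninhibited control and IC50 calculated from concentration-response curves.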

For the next test, the system named is d-U937 cells. As to the kind of experiment: LPS-induced TNFα/IL-8 release in d-U937 cells. It is filed as cell-based. Conditions: Homo sapiens, dU937, LPS-stimulated d-U937 cells. How it is done:
U937 cells, a human monocytic cell line, are differentiated to macrophage-type cells by incubation with phorbol myristate acetate (PMA; 100 ng/mL) for 48 to 72 hr. Cells are pre-incubated with final concentrations of test compound for 2 hr and are then stimulated with 0.1 μg/mL of LPS (from E. Coli: O111:B4, Sigma) for 4 hr. The supernatant is collected for determination of TNFα and IL-8 concentrations by sandwich ELISA (Duo-set, R&D systems). The inhibition of TNFα production is calculated as a percentage of that achieved by 10 μg/mL of BIRB796 at each concentration of test compound by comparison against vehicle control. The relative 50% effective concentration (REC50) is determined from the resultant concentration-response curve. The inhibition of IL-8 production is calculated at each concentration of test compound by comparison with vehicle control. The 50% inhibitory concentration (IC50) is determined from the resultant concentration-response curve.

For test [1], the system named is PBMCs. The experiment in a line: LPS-induced TNFα/IL-8 release in PBMC cells. The note with it: Homo sapiens, LPS-stimulated PBMCs. It is filed as cell-based. The essentials:
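Cytokines (TNFα, IL-8) in supernatants were quantified by sandwich ELISA after a 24 h challenge with 1 ng/mL E. coli LPS at 37° C, 5% CO2. Healthy-donor PBMCs had been exposed to compound for 2 h beforehand. IC50 values were fitted from the concentration-response curves.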

The target in another test is p38 MAPKα (Homo sapiens (Human), UniProt Q16539). As to the kind of experiment: p38 MAPKα enzyme inhibition (FRET, Z-LYTE; Method 2). It counts as biochemical. The protocol:
as §1
The inhibitory activities of test compounds against the p38 MAPKα isoform (MAPK14: Invitrogen), are evaluated indirectly by determining the level of activation/phosphorylation of the down-stream molecule, MAPKAP-K2. The p38 MAPKα protein (80 ng/mL, 2.5 μL) is mixed with the test compound (2.5 μL of either 4 μg/mL, 0.4 μg/mL, 0.04 μg/mL or 0.004 μg/mL) for 2 hr at RT. […] The mixture is incubated for 1 hr at RT. Development reagent (protease, 5 μL) is added for 1 hr prior to detection in a fluorescence microplate reader (Varioskan® Flash, ThermoFisher Scientific).
Method 2 This method follows the same steps as Method 1 above, but utilises a higher concentration of the p38 MAPKα protein (2.5 μL of 200 ng/mL protein instead of 2.5 μL of 80 ng/mL protein) for mixing with the test compound.
as §3

The next test addresses Syk (Homo sapiens (Human), UniProt P43405). As to the kind of experiment: Syk enzyme inhibition (FRET, Z-LYTE). It is filed as biochemical. The protocol: as §1, §2, §3
In test [2] the test system is PBMCs. The experiment in a line: IL-2 and IFN gamma release in CD3/CD28 stimulated PBMC cells. The note with it: Homo sapiens. It is filed as cell-based. How it is done: PBMCs from healthy subjects are separated from whole blood using a density gradient (Lymphoprep, Axis-Shield Healthcare). Cells are added to a 96 well plate pre-coated with a mixture of CD3/[…] monoclonal antibodies (0.3 μg/mL eBioscience and 3 μg/mL BD Pharmingen respectively). Compound at the desired concentration is then added to the wells and the plate left for 3 days under normal tissue culture conditions. Supernatants are harvested and IL-2 and IFN gamma release determined by Sandwich ELISA (Duo-set, R&D System). The IC50 is determined from the dose response curve.

A further test relates to HT29 cells. The experiment in a line: IL-1β-induced IL-8 release in HT29 cells. It is filed as cell-based. Conditions: Homo sapiens, HT-29, IL-1β-stimulated HT29 cells, read-out: IC50 Values for Inhibition of Cytokine Release, HT29 cells IL-8. How it is done:
HT29 cells, a human colon adenocarcinorna cell line, are plated in a 96 well plate (24 hrs) and pre-treated with compounds at the desired concentration for 2 hours before addition of 5 ng/mL of IL-1β (Abcam) for 24 hours. Supernatants are harvested for IL-8 quantification by Sandwich ELISA (Duo-set, R&D System). The IC50 is determined from the dose response curve.

Setting [3] is: TNFα (REC50 relative to BIRB796 per method), read-out: IC50 Values for Inhibition of Cytokine Release, dU937 cells TNFα.
The mark [4] stands for this setting: IL-8, read-out: IC50 Values for Inhibition of Cytokine Release, PBMCs IL-8.
Setting [5] is: TNFα, read-out: IC50 Values for Inhibition of Cytokine Release, PBMCs TNFα.
Setting [6] is: IFNγ, read-out: IC50 Values for Inhibition of Cytokine Release, PBMCs IFNγ.
Setting [7] is: IL-2, read-out: IC50 Values for Inhibition of Cytokine Release, PBMCs IL-2.
The mark [8] stands for this setting: IL-8, read-out: IC50 Values for Inhibition of Cytokine Release, dU937 cells IL-8.

Sequence of p38 MAPKα (Q16539 whole entry): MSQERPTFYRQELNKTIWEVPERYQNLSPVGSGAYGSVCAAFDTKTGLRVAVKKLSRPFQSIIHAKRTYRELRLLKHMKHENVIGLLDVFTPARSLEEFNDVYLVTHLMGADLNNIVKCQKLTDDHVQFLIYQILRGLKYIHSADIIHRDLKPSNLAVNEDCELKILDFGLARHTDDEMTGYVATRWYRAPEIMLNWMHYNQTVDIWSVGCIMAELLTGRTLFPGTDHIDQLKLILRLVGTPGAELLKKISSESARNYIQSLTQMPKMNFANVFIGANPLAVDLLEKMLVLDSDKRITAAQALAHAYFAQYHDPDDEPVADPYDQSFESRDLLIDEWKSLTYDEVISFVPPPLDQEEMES
Sequence of GSK3α (P49840 whole entry): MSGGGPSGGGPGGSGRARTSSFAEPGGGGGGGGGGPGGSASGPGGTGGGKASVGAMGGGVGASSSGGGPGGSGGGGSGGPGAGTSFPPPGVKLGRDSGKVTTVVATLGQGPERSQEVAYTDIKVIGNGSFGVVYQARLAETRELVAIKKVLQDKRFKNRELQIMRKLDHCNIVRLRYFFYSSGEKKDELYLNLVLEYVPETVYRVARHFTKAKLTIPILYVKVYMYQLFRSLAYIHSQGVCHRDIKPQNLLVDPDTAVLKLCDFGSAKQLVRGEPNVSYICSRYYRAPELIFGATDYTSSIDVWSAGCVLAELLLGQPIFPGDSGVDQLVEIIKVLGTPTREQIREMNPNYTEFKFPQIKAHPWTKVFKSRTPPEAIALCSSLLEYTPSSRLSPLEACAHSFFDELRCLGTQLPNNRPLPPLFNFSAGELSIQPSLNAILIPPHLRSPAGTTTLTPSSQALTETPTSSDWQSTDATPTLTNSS
Sequence of c-Src (P12931 whole entry, looked up): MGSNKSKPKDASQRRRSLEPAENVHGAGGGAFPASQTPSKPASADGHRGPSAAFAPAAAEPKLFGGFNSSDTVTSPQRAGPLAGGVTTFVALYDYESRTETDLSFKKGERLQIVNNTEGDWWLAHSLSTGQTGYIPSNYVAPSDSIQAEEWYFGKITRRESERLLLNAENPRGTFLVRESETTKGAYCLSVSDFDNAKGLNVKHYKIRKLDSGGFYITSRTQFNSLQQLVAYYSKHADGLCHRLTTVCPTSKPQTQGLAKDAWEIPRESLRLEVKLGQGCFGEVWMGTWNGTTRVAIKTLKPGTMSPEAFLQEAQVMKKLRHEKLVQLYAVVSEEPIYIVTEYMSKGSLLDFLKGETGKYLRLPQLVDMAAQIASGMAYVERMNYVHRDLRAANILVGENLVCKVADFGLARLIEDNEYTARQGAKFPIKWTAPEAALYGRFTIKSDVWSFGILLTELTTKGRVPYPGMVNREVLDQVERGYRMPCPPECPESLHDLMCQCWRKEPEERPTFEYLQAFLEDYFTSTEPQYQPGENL

As for `CC(C)c1cc(NC(=O)Nc2ccc(Oc3ccnc(Nc4ccccc4)n3)c3ccccc23)n(-c2ccc(P(C)(C)=O)cc2)n1` [Example 4, 1-(1-(4-(Dimethylphosphoryl)phenyl)-3-isopropyl-1H-pyrazol-5-yl)-3-(4-((2-(phenylamino)-pyrimidin-4-yl)oxy)naphthalen-1-yl)urea], the concentration for half-maximal inhibition (IC50) at c-Src was determined as 12 nM; on GSK3α, 220 nM; in the test on d-U937 cells (setting [3]) it was 19.2 nM; in the test with PBMCs [1] (setting [4]), 58.9 nM; in the test on PBMCs [1] (setting [5]), 20.8 nM.
On to `CC(C)(C)c1cc(NC(=O)Nc2ccc(Oc3ccnc(Nc4cc(OCCN5CCOCC5)cc(C(F)(F)F)c4)n3)c3ccccc23)n(-c2cccc(CP(C)(C)=O)c2)n1` [Example 61, 1-(3-(tert-Butyl)-1-(3-((dimethylphosphoryl)methyl)phenyl)-1H-pyrazol-5-yl)-3-(4-((2-((3-(2-morpholinoethoxy)-5-(trifluoromethyl)phenyl)amino)pyrimidin-4-yl)oxy)naphthalen-1-yl)urea], for which the IC50 amounted to 303 nM against p38 MAPKα; 14 nM against c-Src; 24 nM on Syk; 4190 nM against GSK3α; 2.3 nM with PBMCs [1] (setting [4]); 3.3 nM with PBMCs [2] (setting [6]). In addition, the IC50 is 50.7 nM in the test with PBMCs [2] (setting [7]) and 2.6 nM in the test on HT29 cells.
For `CC(C)c1cc(NC(=O)Nc2ccc(Oc3ccnc(Nc4ccccc4)c3)c3ccccc23)n(-c2cccc(CP(C)(C)=O)c2)n1` [Example 42, 1-(1-(3-((Dimethylphosphoryl)methyl)phenyl)-3-isopropyl-1H-pyrazol-5-yl)-3-(4-((2-(phenylamino)pyridin-4-yl)oxy)naphthalen-1-yl)urea], the IC50 against c-Src was 47 nM; against Syk, 63 nM; at GSK3α it was 6980 nM; in the test on PBMCs [1] (setting [4]), 5.5 nM; with HT29 cells, 5.6 nM.
For the compound `CC(C)(C)c1cc(NC(=O)Nc2ccc(Oc3ccnc(Nc4ccccc4)n3)c3ccccc23)n(-c2cccc(P(C)(C)=O)c2)n1` [Example 2, 1-(3-(tert-Butyl)-1-(3-(dimethylphosphoryl)phenyl)-1H-pyrazol-5-yl)-3-(4-((2-(phenylamino)pyrimidin-4-yl)oxy)naphthalen-1-yl)urea], the IC50 is 647 nM against GSK3α, 9.4 nM in the test with d-U937 cells (setting [8]), 3.6 nM in the test with d-U937 cells (setting [3]) and 4.3 nM in the test with PBMCs [1] (setting [5]).
For the compound `CC(C)(C)c1cc(NC(=O)Nc2ccc(Oc3ccnc(Nc4ccccc4)c3)c3ccccc23)n(-c2cccc(CP3(=O)CCCC3)c2)n1` [Example 44, 1-(3-(tert-Butyl)-1-(3-((1-oxidophospholan-1-yl)methyl)phenyl)-1H-pyrazol-5-yl)-3-(4-((2-(phenylamino)pyridin-4-yl)oxy)naphthalen-1-yl)urea], the IC50 stood at 201 nM on p38 MAPKα, 8040 nM on GSK3α, 4 nM in the test with PBMCs [1] (setting [4]) and 7.1 nM in the test with HT29 cells.
On to `CC(C)c1cc(NC(=O)Nc2ccc(Oc3ccnc(Nc4cc(OCCN5CCOCC5)cc(C(F)(F)F)c4)n3)c3ccccc23)n(-c2cccc(CP(C)(C)=O)c2)n1` [Example 49, 1-(1-(3-((Dimethylphosphoryl)methyl)phenyl)-3-isopropyl-1H-pyrazol-5-yl)-3-(4-((2-((3-(2-morpholinoethoxy)-5-(trifluoromethyl)phenyl)amino)pyrimidin-4-yl)oxy)naphthalen-1-yl)urea], for which the IC50 was 202 nM at p38 MAPKα; 95 nM on c-Src; 219 nM at Syk; above 10000 nM against GSK3α; 1.4 nM in the test on PBMCs [1] (setting [4]); 5.1 nM in the test with PBMCs [2] (setting [6]). Besides, the IC50 came out at 45.6 nM in the test on PBMCs [2] (setting [7]) and 3.8 nM in the test on HT29 cells.
`CC(C)(C)c1cc(NC(=O)Nc2ccc(Oc3ccnc(Nc4ccccc4)n3)c3ccccc23)n(-c2ccc(P(C)(C)=O)cc2)n1` [Example 1, 1-(3-(tert-Butyl)-1-(4-(dimethylphosphoryl)phenyl)-1H-pyrazol-5-yl)-3-(4-((2-(phenylamino)pyrimidin-4-yl)oxy)naphthalen-1-yl)urea]: the IC50 on p38 MAPKα worked out at 8 nM; at c-Src, 15 nM; against Syk, 34 nM; against GSK3α, 1280 nM; in the test with d-U937 cells (setting [8]), 4.9 nM; in the test on d-U937 cells (setting [3]), 2 nM. In addition, the IC50 amounted to 6.9 nM with PBMCs [1] (setting [4]) and 1.3 nM in the test with PBMCs [1] (setting [5]).
With `COCC(=O)Nc1cc(Oc2ccc(NC(=O)Nc3cc(C(C)(C)C)nn3-c3ccc(P(C)(C)=O)cc3)c3ccccc23)ccn1` [Example 3, N-(4-((4-(3-(3-(tert-Butyl)-1-(4-(dimethylphosphoryl)phenyl)-1H-pyrazol-5-yl)ureido)-naphthalen-1-yl)oxy)pyridin-2-yl)-2-methoxyacetamide], the half-maximal inhibitory concentration (IC50) was determined as 16 nM against GSK3α, 8.6 nM in the test with d-U937 cells (setting [8]), 3.6 nM in the test on d-U937 cells (setting [3]) and 2.5 nM in the test with PBMCs [1] (setting [5]).
Take `CC(C)c1cc(NC(=O)Nc2ccc(Oc3ccnc(Nc4cc(OCCN5CCOCC5)cc(OC(F)(F)F)c4)n3)c3ccccc23)n(-c2cccc(CP(C)(C)=O)c2)n1` [Example 48, 1-(1-(3-((Dimethylphosphoryl)methyl)phenyl)-3-isopropyl-1H-pyrazol-5-yl)-3-(4-((2-((3-(2-morpholinoethoxy)-5-(trifluoromethoxy)phenyl)amino)pyrimidin-4-yl)oxy)naphthalen-1-yl)urea]: the IC50 against p38 MAPKα was 231 nM; at c-Src, 87 nM; against Syk, 232 nM; on GSK3α it was above 10000 nM; in the test on PBMCs [1] (setting [4]) it was 1.5 nM; in the test with PBMCs [2] (setting [7]), 53.4 nM. Further, in the test with HT29 cells, the IC50 was determined as 4.3 nM.

A word on the IC50: it is the concentration at which inhibition is half-maximal.

These data come from patent publication US9796742B2, “Kinase inhibitors” (Respivert Limited, priority 2012, dated 2017).
